Laboratory results published in ChEMBL document CHEMBL1142601, “Biphenyl glycosides from the fruit of Pyracantha fortuneana” (J Nat Prod, 2006).

Target: T1, Tyrosinase (Homo sapiens, UniProt P14679)
T1 sequence (P14679 whole entry): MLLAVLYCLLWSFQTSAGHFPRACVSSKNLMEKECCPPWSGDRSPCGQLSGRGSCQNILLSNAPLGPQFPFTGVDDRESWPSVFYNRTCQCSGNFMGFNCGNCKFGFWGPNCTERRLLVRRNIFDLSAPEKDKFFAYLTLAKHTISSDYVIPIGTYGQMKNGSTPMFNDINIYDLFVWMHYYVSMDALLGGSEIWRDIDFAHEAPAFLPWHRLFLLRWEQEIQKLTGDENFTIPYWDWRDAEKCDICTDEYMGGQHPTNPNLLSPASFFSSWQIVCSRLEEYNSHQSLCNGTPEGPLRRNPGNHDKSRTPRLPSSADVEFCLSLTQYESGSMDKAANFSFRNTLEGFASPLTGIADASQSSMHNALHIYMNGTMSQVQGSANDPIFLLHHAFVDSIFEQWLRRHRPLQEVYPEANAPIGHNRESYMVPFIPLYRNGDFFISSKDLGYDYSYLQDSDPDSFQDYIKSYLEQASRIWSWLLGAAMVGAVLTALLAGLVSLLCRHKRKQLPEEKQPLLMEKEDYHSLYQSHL
Test: Inhibition of tyrosinase

| Structure (SMILES) | IC50 |
| --- | --- |
| COc1ccccc1-c1cc(OC)c(O)c(OC)c1O[C@@H]1O[C@H](CO)[C@@H](O)[C@H](O)[C@H]1O [FORTUNEANOSIDE B] | 2210 µM |
| COc1cc(-c2ccccc2O[C@@H]2O[C@H](CO)[C@@H](O)[C@H](O)[C@H]2O)cc(OC)c1O [FORTUNEANOSIDE C] | 450 µM |
| COc1cc(-c2cccc(O[C@@H]3O[C@H](CO)[C@@H](O)[C@H](O)[C@H]3O)c2O)cc(OC)c1O [FORTUNEANOSIDE D] | 70 µM |
| COc1cc(-c2ccc(O[C@@H]3O[C@H](CO)[C@@H](O)[C@H](O)[C@H]3O)c(O)c2)cc(OC)c1O [FORTUNEANOSIDE E] | 140 µM |
